Values of other authors in patent US20100015141A1, “4-PHENOXY-6-ARYL-1H-PYRAZOLO[3,4-D]PYRIMIDINE AND N-ARYL-6-ARYL-1H-PYRAZOLO[3,4-D]PYRIMIDIN-4-AMINE COMPOUNDS, THEIR USE AS MTOR KINASE AND PI3 KINASE INHIBITORS, AND THEIR SYNTHESES” (Wyeth, priority 2008, published 2010).

Tested on: acute lymphoblastic leukemia
Details: in vivo; cited from earlier work

CO[C@H]1C[C@@H]2CC[C@@H](C)[C@@](O)(O2)C(=O)C(=O)N2CCCC[C@H]2C(=O)O[C@H]([C@H](C)C[C@@H]2CC[C@@H](OC(=O)C(C)(CO)CO)[C@H](OC)C2)CC(=O)[C@H](C)/C=C(\C)[C@@H](O)[C@@H](OC)C(=O)[C@H](C)C[C@H](C)/C=C/C=C/C=C/1C [Torisel]
activity in NOS/SCID xenograft mouse model of acute lymphoblastic leukemia: active
